# Assay results from patent publication US11442059B2, “Method for treating a chronic itch condition by administering small molecule MrgprX4 antagonists” (The Johns Hopkins University, priority 2017, dated 2022).
# Tests used:
# Type in all cases: cell-based
# Mrgpra1-GFP = biological target: T1, Mrgpra1-GFP (Mus musculus, UniProt Q91WW5); assay: Receptor internalization assay, Mrgpra1-GFP HEK293 cells; conditions: 37° C.
# T1 construct: expressed in transfected cells
# T1 sequence (Q91WW5 1-304): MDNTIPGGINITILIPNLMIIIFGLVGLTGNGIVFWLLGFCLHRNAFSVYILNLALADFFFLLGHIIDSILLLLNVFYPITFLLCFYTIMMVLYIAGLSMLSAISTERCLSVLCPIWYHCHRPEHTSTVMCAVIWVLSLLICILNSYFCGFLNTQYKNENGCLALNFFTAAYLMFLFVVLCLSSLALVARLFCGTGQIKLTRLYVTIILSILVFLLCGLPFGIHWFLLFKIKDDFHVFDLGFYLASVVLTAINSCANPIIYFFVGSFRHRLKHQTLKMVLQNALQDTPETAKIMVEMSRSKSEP
# Method: To label the drug with red-fluorescent dye, […] of LTG was dissolved in 50 μl dimethyformamide (DMF) first, and further diluted with 450 μl reaction buffer (0.1M sodium bicarbonate buffer, pH9.0) to obtain LTG at a concentration of 7.8 mM. Then, 50 μl of Texas-red-conjugated sulfonyl chloride (Thermo Fisher Scientific, T1905) dissolved in DMF at 10 mg ml−1 was slowly added into LTG solution. The reaction was incubated at 4° C. for 1 hour with continuous stirring. The mixture was then diluted into cell culture medium for further use. LTG labeled with Texas Red dye can create bright red-fluorescence with excitation/emission maxima ˜595/615 nm. HEK293 cells stably expressing Mrgpra1-GFP, Mrgprc11-GFP or MRGPRX4-GFP fusion protein were grown in DMEM with 10% FBS. After 4-6 hours of serum starvation, cells were treated with either medium, dye alone, unlabeled LTG or Texas-Red-labeled LTG at 37° C. for 15 or 60 min. Cells were washed with PBS and fixed with 4% paraformaldehyde in PBS. The subcellular localization of Mrgpr-GFP or drug was visualized under a confocal fluorescence microscope with a 400× magnification (Zeiss LSM 700).
# MRGPRX4 = MRGPRX4 (Homo sapiens, UniProt Q96LA9); assay: Ca2+ imaging / EC50 determination in HEK293 cells expressing MRGPRX4; design: expressed in transfected cells
# Method: (§1) Lamotrigine (LTG), allopurinol, carbamazepine and oxcarbazepine (all from Sigma) were prepared fresh on the day of the experiment. These drugs were dissolved into dimethyl sulfoxide (DMSO) first, and then were diluted at least 10000× into calcium imaging buffer before use. The final concentrations of drugs for each experiment were indicated in the corresponding figure legend.
# (§2) In initial experiments, HEK293 cells were plated on 100 μg/ml poly-D-lysine coated glass cover slips, and transiently transfected with vector containing Mrgprs gene, after 24-48 hours of culture, cells were loaded with Fura 2-acetomethoxy ester calcium indicator (0.5 μM, Molecular Probes) along with pluronic F-127 dispersing agent (0.1%, Molecular Probes) for 30 minutes in the dark at 37° C., then washed with calcium imaging buffer (CIB; NaCl 125 mM, KCl 3 mM, CaCl2 2.5 mM, MgCl2 0.6 mM, HEPES 10 mM, glucose 20 mM, NaHCO3 1.2 mM, sucrose 20 mM, brought to pH 7.4 with NaOH). Drugs were added to Fura 2-loaded cells and intracellular free calcium was measured using 340 nm and 380 nm excitation wavelengths with emission measured at 520 nm with a microscope based imaging system (Nikon Eclipse TE200). Changes in emission fluorescence ratios at 340/380 nm excitation were continuously monitored at 1 second intervals. Later, experiments were performed using Mrgpra1-GFP, Mrgprc11-GFP and MRGPRX4-GFP stable cell lines to confirm the findings obtained from the transiently expressing cells.
# (§3) Mrgpra1 or both wild-type and mutant MRGPRX4 stably expressed HEK cells were plated overnight in 100 μl culture media on 96-well plates. […] After 1 hour of incubation at 37° C., cells were allowed to recover for 10 minutes in the dark at room temperature prior to performing intracellular calcium mobilization assay in a FLEXSTATION® multi-mode plate reader (Molecular Devices). […] Responses were determined by subtracting the minimum signal (at the basal level before adding the drug) from the maximum signal (obtained after stimulating with the drug). […]
# mouse Mrgpra1 = biological target: T2, mouse Mrgpra1 (Mus musculus, UniProt Q91WW5); assay: Ca2+ imaging / EC50 determination in HEK293 cells expressing Mrgpra1
# T2 construct: expressed in transfected cells; host or cells: HEK293
# T2 sequence (Q91WW5 1-304): T1 sequence (Q91WW5 1-304)
# Method: as §1, §2, §3
# [1] = Mrgprs individually expressed in HEK293 cells
# Sequence of MRGPRX4 (Q96LA9 whole entry): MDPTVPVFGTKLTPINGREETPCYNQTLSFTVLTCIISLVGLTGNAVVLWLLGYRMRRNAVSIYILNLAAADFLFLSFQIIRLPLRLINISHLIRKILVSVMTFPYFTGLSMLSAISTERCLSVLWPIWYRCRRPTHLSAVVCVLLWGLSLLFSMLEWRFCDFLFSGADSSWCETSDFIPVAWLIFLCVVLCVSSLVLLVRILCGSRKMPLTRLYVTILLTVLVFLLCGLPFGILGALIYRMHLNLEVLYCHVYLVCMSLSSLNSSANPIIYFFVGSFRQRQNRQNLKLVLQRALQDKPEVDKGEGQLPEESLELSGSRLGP
structure (smiles),measurement,setting,value
"Nc1nnc(-c2cccc(Cl)c2Cl)c(N)n1 [LTG, Lamotrigine]",internalization of Mrgpra1-GFP,Mrgpra1-GFP,can induce the internalization
same,EC50,"MRGPRX4; HEK293 cells, Ca2+ assay",~200 µM
same,activation of human MRGPRX4 (Ca2+ imaging),MRGPRX4; [1],specifically activated
same,EC50,"mouse Mrgpra1; HEK293 cells, Ca2+ assay",~30 µM
same,activation of mouse Mrgpra1 (Ca2+ imaging),mouse Mrgpra1; [1],specifically activated
